This is an account of results in article PMC5872235 (2018).

Assay [1] has as its system S. aureus in control group. Format: cell-based, Staphylococcus aureus.
Assay [2] concerns vancomycin intermediate S. aureus (VISA) isolates. Particulars: cited from earlier work.
Assay [3] deals with Superantigen positive Staphylococcus aureus (n = 52). Particulars: Superantigen positive (n = 52, 18 h).
In assay [4] the test system is Staphylococcus aureus strains isolated from atopic dermatitis (AD) patients. Particulars: strains isolated from atopic dermatitis (AD) patients, 18 h.
Assay [5] relates to Staphylococcus aureus strains isolated from control group. As to conditions: strains isolated from control group, 18 h.
For assay [6], the system named is Superantigen negative Staphylococcus aureus (n = 48). As to conditions: Superantigen negative (n = 48, 18 h).
Assay [7] deals with S. aureus in patients with atopic dermatitis. Format: cell-based, Staphylococcus aureus.

Converted amounts (≈) assume the structure as drawn.

Turning to `CCCCCCCCCC(=O)N[C@@H](Cc1c[nH]c2ccccc12)C(=O)N[C@H](CC(N)=O)C(=O)N[C@@H](CC(=O)O)C(=O)N[C@@H]1C(=O)NCC(=O)N[C@@H](CCCN)C(=O)N[C@@H](CC(=O)O)C(=O)N[C@H](C)C(=O)N[C@@H](CC(=O)O)C(=O)NCC(=O)N[C@H](CO)C(=O)N[C@@H]([C@H](C)CC(=O)O)C(=O)N[C@@H](CC(=O)c2ccccc2N)C(=O)O[C@@H]1C` [Daptomycin, daptomycin], the “Resistance (%), resistant strains” value in assay [1] turned out to be 4%; in assay [7], 54.7%. In addition, the MIC in assay [2] was 4 µg/mL (≈ 2.47 µM). Further, in assay [2], the “minimum inhibitory concentration (MIC)” value is 2 µg/mL (≈ 1.23 µM). For the same compound, the “MIC50” value in assay [3], in assay [4], in assay [5] and in assay [6] was 2 µg/mL (≈ 1.23 µM) in each case. Moreover, the “MIC90” value in assay [3] amounted to 2 µg/mL (≈ 1.23 µM); in assay [4], 4 µg/mL (≈ 2.47 µM); in assay [5] it was 2 µg/mL (≈ 1.23 µM); in assay [6] it was 4 µg/mL (≈ 2.47 µM). Also, the “MIC Range” value in assay [3] was 0.125 to 4 µg/mL; in assay [4] it was 0.125 to 4 µg/mL; in assay [5] it was 1 to 2 µg/mL; in assay [6], 0.0625 to 4 µg/mL.

What is called MIC is the lowest concentration found to suppress growth. The term MIC50 denotes an inhibitory concentration at the 50% level, which refers to growth in some studies and to a panel of isolates in others. A lower MIC50 goes with higher susceptibility. For orientation: MIC90 means the lowest concentration that inhibits either 90% of growth or 90% of the strains tested, depending on the study.
